# In patent publication US10449135B2, “Solublizing agents for UV filters in cosmetic formulations” (BASF SE, priority 2014, dated 2019):
# Assay: Solubility tests of UV filters in the solubilizing agent
# Type: physicochemical
# Details: solvent: morpholine amide of formula (AM-01); stirred seven days at 25° C.; concentration by UV/Vis-spectrometry
# Description: 2 ml of the solubilizing agent are filled into a 20 ml vial with cap. Afterwards 0.02 g (1%) of the respective substance (UV Filter) are weighed and added to the solvent. The vial is placed into a thermostat-controlled water bath, wherein the suspension/solution is stirred during seven days at 25° C. If the amount of substance put into the solubilizing agent is fully soluble, additional substance is added until precipitation can be observed. After seven days, the sample is centrifuged for 30 minutes at 13000 rpm at 25° C. The supernatant is transferred into a small beaker. In case the sample is still turbid, it is filtered through a 0.2 μm non-steril Membrex 25 PET filter. Clear solutions must not be filtered. When a clear solution is obtained, the concentration of the substance is determined with UV/Vis-spectrometry. For this purpose the sample may be diluted with a suitable solvent or, in case of lower concentrations, may be measured as is. In order to evaluate the concentration from the UV-spectroscopic results, the extinction coefficient is needed, which is determined independently with a solvent of similar polarity like that one used for dilution of the saturated solutions. The solubility can be calculated using the equation of the Lambert-Beer-Law.
row,SMILES,Solubility of UV filter in solubilizing agent [%]
1,CCCCCCOC(=O)c1ccccc1C(=O)c1ccc(N(CC)CC)cc1O [BPH-02],>40
2,CCCCC(CC)COc1ccc(-c2nc(-c3ccc(OC)cc3)nc(-c3ccc(OCC(CC)CCCC)cc3O)n2)c(O)c1 (stereo not drawn) [HTP-02],15
3,CCCCC(CC)COC(=O)c1ccc(Nc2nc(Nc3ccc(C(=O)OCC(CC)CCCC)cc3)nc(Nc3ccc(C(=O)OCC(CC)CCCC)cc3)n2)cc1 (stereo not drawn) [TAT-02],45
